Source: patent publication US6406866B1 (OREGON HEALTH SCIENCES UNIVERSITY, dated 2002)

Legend:
[1] = molecular target: T1, novel mammalian opioid receptor (MSOR, LC132) (Rattus norvegicus, UniProt P35370); format: binding
T1 construct: The entire coding region of the receptor cDNA insert was subcloned in to the RcRSV vector; expressed in transfected cells

[2] = test system: untransfected COS-7 and Ltk- cells; assay: Radioligand binding to membranes of untransfected cells (control); details: untransfected COS-7 and Ltk- cell membranes
[3] = Open-field observation of behavioral signs after peptide administration; format: in vivo, mice
Procedure: (§1) For these experiments, the peptide was administered intracerebroventricularly (i.c.v.) and intrathecally (i.t.) in mice. Immediately after peptide administration, mice were placed in transparent boxes in groups of three and behavioral signs recorded. Emphasis was placed on signs indicative of depressant, stimulant and autonomic effects of the peptide (as described by Irwin, 1968, Psychopharmacologia 13: 222). […] The effects of the peptide on horizontal (FIG. 10A) and vertical (FIG. 10B) locomotor activity was measured using Digiscan Animal Activity Monitors (Omnitech, Columbus Ohio). The values for horizontal and vertical locomotor activity represent the total number of interruptions of the horizontal and vertical sensors during the first 10 min following administration of the peptide. Data are shown as the mean ± standard error of the mean.

[4] = Horizontal and vertical locomotor activity (Digiscan Animal Activity Monitors); format: in vivo, mice; details: i.c.v., 0.1-10 nmol/2 μL/mouse, first 10 min
Procedure: as §1

[5] = Hot plate test of nociception; toe- and tail-pinch reflexes; format: in vivo, mice
Procedure: Groups of 6-8 male MORO mice (weight=22 g) were administered phosphate buffered saline (open circles) or varying doses of the orphanin peptide. Reaction time represents the time taken for the mice to lick their paws. The hot plate was set to 58° C., and a cutoff time of 60 sec was used. […] (designated by an asterisk). This observation was most likely related to a decrease in locomotor activity and muscle tone.

[6] = molecular target: T2, novel mammalian MSOR opioid receptor (methadone-specific opioid receptor) (rat, UniProt P35370 1-367); assay: assay not described
T2 construct: cAMP assays used whole cells; also called LC132; novel mammalian opioid receptor
T2 chain: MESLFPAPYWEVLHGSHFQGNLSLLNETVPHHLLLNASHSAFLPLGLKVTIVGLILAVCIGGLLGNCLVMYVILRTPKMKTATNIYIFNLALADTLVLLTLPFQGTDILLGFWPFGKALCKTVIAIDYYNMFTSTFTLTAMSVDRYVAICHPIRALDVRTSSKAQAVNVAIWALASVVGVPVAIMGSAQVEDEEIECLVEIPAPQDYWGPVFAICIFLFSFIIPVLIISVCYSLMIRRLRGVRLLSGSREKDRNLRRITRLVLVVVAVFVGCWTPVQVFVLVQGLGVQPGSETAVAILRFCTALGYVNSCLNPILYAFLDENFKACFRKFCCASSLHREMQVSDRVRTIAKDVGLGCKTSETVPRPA

[7] = molecular target: T2, novel mammalian MSOR opioid receptor …; assay: cell-based or functional assay
[8] = molecular target: T2, novel mammalian MSOR opioid receptor …; assay: saturation radioligand binding (scintillation proximity assay) to membranes of MSOR-transfected CHO cells (LC-7), Scatchard analysis

T1 sequence (P35370 whole entry): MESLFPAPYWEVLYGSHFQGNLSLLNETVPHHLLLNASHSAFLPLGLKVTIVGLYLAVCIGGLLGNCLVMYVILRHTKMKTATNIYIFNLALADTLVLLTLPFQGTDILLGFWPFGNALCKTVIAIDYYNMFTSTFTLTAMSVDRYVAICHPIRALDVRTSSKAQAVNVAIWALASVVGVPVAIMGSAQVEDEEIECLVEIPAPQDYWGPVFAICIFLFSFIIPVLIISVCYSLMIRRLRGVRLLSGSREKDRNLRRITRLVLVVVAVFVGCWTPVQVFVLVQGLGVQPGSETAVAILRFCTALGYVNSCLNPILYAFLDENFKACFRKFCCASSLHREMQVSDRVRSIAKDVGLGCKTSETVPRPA

C[C@@H](NC(=O)[C@@H](N)Cc1ccc(O)cc1)C(=O)NCC(=O)N(C)[C@@H](Cc1ccccc1)C(=O)NCCO [DAMGO, Tyr-DAla-Gly-Met-Phe-Gly-ol]
specific binding of the radioactively-labeled opioid agonist or antagonist [1]: no specific binding

CCC12CCN(CC3(O)CC3)C(Cc3ccc(O)cc31)C2(C)C (centres unmarked) [bremacozine]
specific binding of the radioactively-labeled opioid agonist or antagonist [1]: no specific binding

CN1CC[C@]23c4c5ccc(O)c4O[C@H]2[C@@H](O)CC[C@H]3[C@H]1C5 [dihydromorphine]
specific binding of the radioactively-labeled opioid agonist or antagonist [1]: no specific binding

CC[C@]12CCN(CC3CC3)[C@H](C(=O)c3ccc(O)cc31)[C@@H]2C [ethylketocyclazocine]
specific binding of the radioactively-labeled opioid agonist or antagonist [1]: no specific binding

CCC(=O)C(CC(C)N(C)C)(c1ccccc1)c1ccccc1 (centres unmarked) [methadone]
Bmax [1]: 400-450 femtomoles/μg protein
specific binding of the radioactively-labeled opioid agonist or antagonist [1]: specific binding was found
endogenous specific binding of the radioligand [2]: no or negligible amounts

C=CCN1CC[C@]23c4c5ccc(O)c4O[C@H]2C(=O)CC[C@@]3(O)[C@H]1C5 [naloxone]
endogenous specific binding of the radioligand [2]: endogenous low levels of specific

CC(C)C[C@H](NC(=O)[C@H](CCCCN)NC(=O)[C@H](CCCNC(=N)N)NC(=O)[C@H](C)NC(=O)[C@H](CO)NC(=O)[C@H](CCCCN)NC(=O)[C@H](CCCNC(=N)N)NC(=O)[C@H](C)NC(=O)CNC(=O)[C@@H](NC(=O)[C@H](Cc1ccccc1)NC(=O)CNC(=O)CNC(=O)[C@@H](N)Cc1ccccc1)[C@@H](C)O)C(=O)N[C@@H](C)C(=O)N[C@@H](CC(N)=O)C(=O)N[C@@H](CCC(N)=O)C(=O)O [orphanin FQ]
ataxia [3]: ataxia
muscle tone [3]: decrease in muscle tone
righting reflex [3]: loss of righting reflex
influence on locomotor activity ([3]; i.c.v. and i.t. administration): profound influence on locomotor activity
horizontal locomotion [4]: decrease
vertical locomotion [4]: decrease
toe- and tail-pinch reflexes ([5]; all doses tested): normal
inhibition of nociception ([5]; i.c.v., all doses except the highest, 10 nmol/mouse): No significant inhibition
analgesic effect in hot plate test ([5]; i.c.v., hot plate 58° C., cutoff 60 sec): little analgesic effect
analgesic effect ([5]; i.t., 2.5-10 nmol/4 μL/animal): No analgesic effect
motor effects at the highest dose ([5]; i.t., highest dose): hindlimb paralysis and decrease in locomotor activity

β-endorphin
specific binding of the radioactively-labeled opioid agonist or antagonist [1]: no specific binding

B1: dynorphin A (peptide)
peptide: YGGFLRRIRPKLKWDNQ
binding result [6]: no binding

B2: dynorphin B (peptide)
peptide: YGGFLRRQFKVVT
binding result [6]: no binding

B3: Y14-orphanin FQ (peptide)
peptide: FGGFTGARKSARKYANQ
cAMP inhibition assay in MSOR-transfected CHO cells, EC50 [7]: 1 nM

B4: α-endorphin (peptide)
peptide: YGGFMTSEKSQTPLVT
binding result [6]: no binding

B5: monoiodinated Y14-orphanin FQ (peptide)
peptide: FGGFTGARKSARKYANQ
modifications: monoiodotyrosine at position 14 (125I in the binding assay), made by the chloramine T method
notes: also called I-Y14
Kd [8]: 0.3 nM

B6: Leu-Enkephalin (peptide)
peptide: YGGFL
binding result [6]: no binding
